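In this assay, cells in 96-well plates receive the compound at five concentrations for 48 hours. Endpoints are linearly interpolated between the surrounding concentrations. At the TGI there is no net growth.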
Legend:
Assay in all cases: NCI anticancer screen, dose series, 48 h
HOP-62 NSCLC = tested on: HOP-62 NSCLC
RPMI-8226 leukemia = tested on: RPMI-8226 leukemia
SF-295 CNS = tested on: SF-295 CNS
MCF7 breast = tested on: MCF7 breast
ACHN renal = tested on: ACHN renal
SW-620 colon = tested on: SW-620 colon
MDA-MB-435 = tested on: MDA-MB-435
CAKI-1 renal = tested on: CAKI-1 renal
NCI-H460 lung = tested on: NCI-H460 lung
SK-MEL-5 melanoma = tested on: SK-MEL-5 melanoma

Row | SMILES | TGI (HOP-62 NSCLC) [µM] | TGI (RPMI-8226 leukemia) [µM] | TGI (SF-295 CNS) [µM] | TGI (MCF7 breast) [µM] | TGI (ACHN renal) [µM] | TGI (SW-620 colon) [µM] | TGI (MDA-MB-435) [µM] | TGI (CAKI-1 renal) [µM] | TGI (NCI-H460 lung) [µM] | TGI (SK-MEL-5 melanoma) [µM]
1 | COC1=CC(=O)CC(C)C12Oc1c(Cl)c(OC)cc(OC)c1C2=O (stereo not given) | > 100 | > 100 | 57.3 | > 100 | > 100 | > 100 | 6.42 | 84.9 | > 100 | > 100
2 | COC1=CC2(CC(OC)=C1OC)OC21COc2ccccc2C1=O (stereo not given) | > 100 | > 100 | > 100 | > 100 | > 100 | > 100 | > 100 | > 100 | > 100 | > 100
3 | Cc1nc(C)c(N2CCNCC2)c(=O)[nH]1 | > 100 | > 100 | > 100 | > 100 | > 100 | > 100 | > 100 | > 100 | > 100 | > 100
4 | CC(=O)Oc1c(N2CCCCC2)c(C(=O)c2ccccc2)c(O)c2ccn(N(C)C)c12 | 93.2 | 44.8 | 42.4 | 30.6 | 40.2 | 35.1 | 38.1 | 33.8 | 51.2 | 29.7
5 | C=C1CC(Cn2ccc(=O)[nH]c2=O)(c2ccc(Cl)cc2)OC1=O (stereo not given) | 36.4 | 3.94 | 38.6 | 7.56 | 10.4 | 4.31 | 21 | 6.77 | 26.1 | 10.8

Reference: PubChem BioAssay (NCI)
